Patent US20240217983A1, “GPR119 AGONISTS” (Kallyope, Inc., priority 2021, published 2024)

Molecular target: T1, human GPR119 (hGPR119) (Homo sapiens, UniProt Q8TDV5)
T1 construct: expressed in transfected cells
T1 sequence (Q8TDV5 1-335): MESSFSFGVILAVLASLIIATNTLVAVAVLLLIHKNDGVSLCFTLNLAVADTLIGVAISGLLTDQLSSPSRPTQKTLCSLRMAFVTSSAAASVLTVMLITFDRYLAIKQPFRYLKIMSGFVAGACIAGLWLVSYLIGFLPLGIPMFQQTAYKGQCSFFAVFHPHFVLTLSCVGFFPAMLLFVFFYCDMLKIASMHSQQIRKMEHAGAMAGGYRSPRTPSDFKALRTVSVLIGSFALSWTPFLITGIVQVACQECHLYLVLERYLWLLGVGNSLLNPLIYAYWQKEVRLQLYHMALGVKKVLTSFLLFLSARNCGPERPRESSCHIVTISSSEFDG
Assay: cAMP accumulation assay (Cisbio cAMP Gs dynamic HTRF kit) in CHO-K1 cells stably expressing human GPR119
Assay type: cell-based
Details: 4-parameter fit; for Emax: 1 h, % activity normalized to Max and Min controls; for EC50: 60 minutes at 37° C.
Method in brief: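 CHO-K1 cells stably expressing hGPR119, used as assay-ready frozen stocks at ~10,000 cells/well, exposed to compound dose-response in stimulation buffer with Tween 80 for 60 min at 37° C. cAMP read by HTRF (665/620 nm ratio), normalised to Max/Min controls; EC50 and Max activity from 4-parameter fit.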

| Structure (SMILES) | Emax [%] | EC50 [µM] |
| --- | --- | --- |
| O=C(CCCCS(=O)(=O)O)N1CCCN(C(=O)Cc2ccc(OCCCC3CCN(c4ncc(Cl)cn4)CC3)cc2F)CC1 [Example 13, 5-(4-(2-(4-(3-(1-(5-chloropyrimidin-2-yl)piperidin-4-yl)propoxy)-2-fluorophenyl)acetyl)-1,4-diazepan-1-yl)-5-oxopentane-1-sulfonic acid] | 100 to 130 | 0.1 to 1 |
| O=C(Cc1ccc(OCCCC2CCN(c3ncc(Cl)cn3)CC2)cc1F)N1CCC2(CCN2C(=O)CCCCS(=O)(=O)O)C1 (stereo not drawn) [Example 4, 5-(6-(2-(4-(3-(1-(5-chloropyrimidin-2-yl)piperidin-4-yl)propoxy)-2-fluorophenyl)acetyl)-1,6-diazaspiro[3.4]octan-1-yl)-5-oxopentane-1-sulfonic acid] | 100 to 130 | ≤ 0.1 |
| O=C(Cc1ccc(OCCCC2CCN(c3ncc(Cl)cn3)CC2)cc1F)N1C[C@@H]2CN(C[C@H](O)[C@H](O)[C@H](O)CO)C[C@@H]21 [Example 38, 2-(4-(3-(1-(5-chloropyrimidin-2-yl)piperidin-4-yl)propoxy)-2-fluorophenyl)-1-((1S,5R)-3-((2S,3S,4R)-2,3,4,5-tetrahydroxypentyl)-3,6-diazabicyclo[3.2.0]heptan-6-yl)ethan-1-one] | 100 to 130 | ≤ 0.1 |
| O=C(Cc1ccc(OCCCC2CCN(c3ncc(Cl)cn3)CC2)cc1F)N1CC2(CCN2C[C@H](O)[C@@H](O)[C@H](O)[C@H](O)CO)C1 [Example 33, 2-(4-(3-(1-(5-chloropyrimidin-2-yl)piperidin-4-yl)propoxy)-2-fluorophenyl)-1-(1-((2S,3R,4R,5R)-2,3,4,5,6-pentahydroxyhexyl)-1,6-diazaspiro[3.3]heptan-6-yl)ethan-1-one] | 100 to 130 | ≤ 0.1 |
| COCc1cnc(N2CCC(CCCOc3ccc(CC(=O)N4CCN(C[C@H](O)[C@@H](O)[C@H](O)[C@H](O)CO)CC4)c(F)c3)CC2)nc1 [Example 98, 2-(2-fluoro-4-(3-(1-(5-(methoxymethyl)pyrimidin-2-yl)piperidin-4-yl)propoxy)phenyl)-1-(4-((2S,3R,4R,5R)-2,3,4,5,6-pentahydroxyhexyl)piperazin-1-yl)ethan-1-one] | 100 to 130 | 0.1 to 1 |

Continued, values first:

| Emax [%] | EC50 [µM] | Structure (SMILES) |
| --- | --- | --- |
| 100 to 130 | ≤ 0.1 | O=C(Cc1ccc(OCCCC2CCN(c3ncc(Cl)cn3)CC2)cc1F)N1CCCN(C[C@H](O)[C@H](O)[C@H](O)CO)CC1 [Example 50, 2-(4-(3-(1-(5-chloropyrimidin-2-yl)piperidin-4-yl)propoxy)-2-fluorophenyl)-1-(4-((2S,3S,4R)-2,3,4,5-tetrahydroxypentyl)-1,4-diazepan-1-yl)ethan-1-one] |
| 100 to 130 | 0.1 to 1 | O=C(Cc1ccc(OCCCC2CCN(c3ncc(Cl)cn3)CC2)cc1F)N1CCC2(CC1)CN(C[C@H](O)[C@H](O)[C@H](O)CO)C2 [Example 69, 2-(4-(3-(1-(5-chloropyrimidin-2-yl)piperidin-4-yl)propoxy)-2-fluorophenyl)-1-(2-((2S,3S,4R)-2,3,4,5-tetrahydroxypentyl)-2,7-diazaspiro[3.5]nonan-7-yl)ethan-1-one] |
| 100 to 130 | 0.1 to 1 | O=C(Cc1ccc(OCCCC2CCN(C(=O)OC3(C(F)(F)F)COC3)CC2)cc1F)N1CCN(C[C@H](O)[C@@H](O)[C@H](O)[C@H](O)CO)CC1 [Example 105, 3-(trifluoromethyl)oxetan-3-yl 4-(3-(3-fluoro-4-(2-oxo-2-(4-((2S,3R,4R,5R)-2,3,4,5,6-pentahydroxyhexyl)piperazin-1-yl)ethyl)phenoxy)propyl)piperidine-1-carboxylate] |
| 100 to 130 | ≤ 0.1 | O=C(Cc1ccc(OCCCC2CCN(c3ncc(Cl)cn3)CC2)cc1F)N1C[C@H]2CCN(C[C@H](O)[C@H](O)[C@H](O)CO)[C@H]2C1 [Example 64, 2-(4-(3-(1-(5-chloropyrimidin-2-yl)piperidin-4-yl)propoxy)-2-fluorophenyl)-1-((3aR,6aR)-1-((2S,3S,4R)-2,3,4,5-tetrahydroxypentyl)hexahydropyrrolo[3,4-b]pyrrol-5(1H)-yl)ethan-1-one] |
